Experimental data taken from US20210169113A1, “COMPOSITION FOR IMPROVING INTESTINAL FLORA” (Hosoda SHC Co., Ltd., priority 2018, published 2021).
Read-outs that look alike come from different tables or passages of the source.

Columns and labels:
[1] = HPLC of excrement for gnetin C and glycosides (Test Example 7); conditions: 14 weeks
Experimental: (§1) Seven mice were fed ad libitum with the test diet in which 0.5% of gnemonoside A separated and purified in Example 2 was included in the high-fat diet in an amount of 5 g/mouse/day for 14 consecutive weeks, and then 10 mg of their excrement was collected. The excrement thus collected and 10 mg of the excrement collected in Test example 4 were each added with methanol (acetonitrile aqueous solution), suspended by an ultrasonic treatment, and then filtered. The filtrate was washed with hexane and passed through an ODS cartridge, and 20 μL of the elute was applied to an HPLC apparatus.

[2] = mouse, in vivo
Experimental: as §1

| Compound | Fate in the intestinal tract ([1]; 0.5% in high-fat diet) | Peaks in HPLC chromatogram of the excrement ([1]; 0.5% of substance in high-fat diet, mice excrement) | Peaks in HPLC chromatogram of the excrement [2] |
| --- | --- | --- | --- |
| gnemonoside A | hydrolyzed and changed to gnetin C in the intestinal tract | peaks of gnetin C and the monoglucuronide, but not a peak of gnemonoside A, C, or D |  |
| Oc1ccc(/C=C/c2cc(O)c3c(c2)OC(c2ccc(O)cc2)C3c2cc(O)cc(O)c2)cc1 (stereo not drawn) [gnetin C] |  |  | peaks of gnetin C and monoglucuronic acid conjugate of gnetin C |
